The source of these data is PubChem BioAssay (NCI).

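Cultured in 96-well plates, cells were exposed to test compound for 48 hours across five concentrations. The concentration for 50% growth inhibition is given as GI50. The concentration for full growth arrest is given as TGI.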

One assay deals with SF-539 CNS. Nature of the assay: NCI anticancer screen, dose series, 48 h.
With `COc1ccc(-c2nn(-c3cccc(Cl)c3)cc2C2CC(c3ccccc3)=NN2C(C)=O)cc1` (stereo not given), the GI50 was 5.4 µM and the TGI was determined as 58.7 µM.

As for `CC(C)(C)OC(=O)n1cc(CNC(=S)Nc2ccccc2)c2ccccc21`, the GI50 was 12.3 µM and the TGI stood at 25.4 µM.

For `CN=C(N)N/N=C(\c1ccccc1)c1ccc(Br)cc1`, the GI50 was 0.218 µM and the TGI was 0.537 µM.

On to `CNC(=O)c1ccccc1CC1(O)c2ccccc2Oc2ccccc21`, for which the GI50 is 17.3 µM and the TGI amounted to 40.8 µM.

Regarding `O=C(CCN1CCN(c2cnc3ccccc3n2)CC1)c1csc2ccccc12`, the GI50 is 29.3 µM and the TGI was 77.9 µM.

On to `COc1cc2c3c(cccc3c1)C(=O)N(CCN1CCCC1)C2=O`, for which the GI50 is 1.98 µM and the TGI stood at 5.14 µM.

As for `N/C(CC(=O)Nc1cc(C(F)(F)F)ccc1Cl)=N\O`, the TGI was more than 100 µM.

As for `CC(CO)(CO)N=Cc1cc(I)cc(I)c1O`, the TGI worked out at 31.3 µM.

In the case of `CC1(C)N=C(N)N=C(N)N1c1ccc(CCCCc2ccc(S(=O)(=O)F)cc2)cc1`, the GI50 is 0.458 µM and the TGI is 11.6 µM.

In the case of `Oc1ccccc1/C=N/Nc1ccc2ccccc2n1`, the GI50 was 3.5 µM and the TGI stood at 59.4 µM.

`COc1ccc(/C=C/C=C(/C#N)C(N)=S)cc1`: the GI50 was 34.8 µM and the TGI was more than 100 µM.

With `CCC(C)C1NC(=O)c2nc(oc2-c2ccccc2)-c2csc(n2)-c2csc(n2)-c2nc(oc2C)-c2coc(n2)CNC(=O)C(C(C)CC)NC1=O` (stereo not given), the GI50 is 0.111 µM and the TGI came out at 0.239 µM.

Regarding `CCCCCCCCCCCCCC(=S)NCCCC[C@H](NC(=O)OCc1ccccc1)C(=O)Nc1ccccc1`, the GI50 is 10.7 µM and the TGI is more than 100 µM.

Consider `CN1CCN(CC#Cc2cccc(C(=O)c3cnn(-c4ccc(F)cc4)c3N)c2)CC1`, for which the GI50 is more than 25 µM and the TGI was more than 25 µM.

The subject of another assay is SW-620 colon. Nature of the assay: NCI anticancer screen, dose series, 48 h.
With `COc1ccc(-c2nn(-c3cccc(Cl)c3)cc2C2CC(c3ccccc3)=NN2C(C)=O)cc1` (stereo not given), the GI50 was more than 100 µM and the TGI is more than 100 µM.

Turning to `CC(=O)OCC1OC(O[C@@H]2C[C@H]3C(C)(C)[C@H](OC(C)=O)CC[C@]3(C)[C@H]3CCC4=C([C@@H](C)C[C@@H](O)[C@H](O)C(C)(C)O)CC[C@@]4(C)[C@@]32C)C(O)C(O)C1O` (stereo not given in full), the GI50 was 16.8 µM and the TGI worked out at 30.7 µM.

Consider `CC(C)(C)OC(=O)n1cc(CNC(=S)Nc2ccccc2)c2ccccc21`, for which the GI50 was 13.1 µM and the TGI came out at 26.2 µM.

`CN=C(N)N/N=C(\c1ccccc1)c1ccc(Br)cc1`: the GI50 is 0.417 µM and the TGI was 16.3 µM.

As to `CNC(=O)c1ccccc1CC1(O)c2ccccc2Oc2ccccc21`, the GI50 was 14 µM and the TGI is more than 100 µM.

`O=C(CCN1CCN(c2cnc3ccccc3n2)CC1)c1csc2ccccc12`: the GI50 is 20.9 µM and the TGI came out at 45.4 µM.

`COc1cc2c3c(cccc3c1)C(=O)N(CCN1CCCC1)C2=O`: the GI50 is 2.04 µM and the TGI was 15.7 µM.

Take `N/C(CC(=O)Nc1cc(C(F)(F)F)ccc1Cl)=N\O`: the TGI was more than 100 µM.

`CC(CO)(CO)N=Cc1cc(I)cc(I)c1O` registered a TGI of 53 µM.

As for `CC1(C)N=C(N)N=C(N)N1c1ccc(CCCCc2ccc(S(=O)(=O)F)cc2)cc1`, the GI50 is 0.415 µM and the TGI was 15.4 µM.

Take `Oc1ccccc1/C=N/Nc1ccc2ccccc2n1`: the GI50 was 4.64 µM and the TGI is more than 100 µM.

Consider `COc1ccc(/C=C/C=C(/C#N)C(N)=S)cc1`, for which the GI50 is 21.3 µM and the TGI was determined as 61.2 µM.

`CCC(C)C1NC(=O)c2nc(oc2-c2ccccc2)-c2csc(n2)-c2csc(n2)-c2nc(oc2C)-c2coc(n2)CNC(=O)C(C(C)CC)NC1=O` (stereo not given): the TGI was determined as 0.0324 µM.

With `CCCCCCCCCCCCCC(=S)NCCCC[C@H](NC(=O)OCc1ccccc1)C(=O)Nc1ccccc1`, the GI50 was 4.12 µM and the TGI is more than 100 µM.

As for `COC(=O)C1OC(O[C@H]2CCC3(C)C(CCC4(C)C3CC=C3C5CC(C)(C)CCC5(C(=O)O)CC[C@]34C)C2(C)C)C(O)C(OC2OC(CO)C(O)C(O)C2O)C1O` (stereo not given in full), the GI50 was 7.28 µM and the TGI worked out at 16.7 µM.

Turning to `CN1CCN(CC#Cc2cccc(C(=O)c3cnn(-c4ccc(F)cc4)c3N)c2)CC1`, the GI50 was more than 25 µM and the TGI was more than 25 µM.

In a further assay the test system is EKVX NSCLC. Put plainly: NCI anticancer screen, dose series, 48 h.
Regarding `COc1ccc(-c2nn(-c3cccc(Cl)c3)cc2C2CC(c3ccccc3)=NN2C(C)=O)cc1` (stereo not given), the GI50 is 8.75 µM and the TGI is more than 100 µM.

`CC(=O)OCC1OC(O[C@@H]2C[C@H]3C(C)(C)[C@H](OC(C)=O)CC[C@]3(C)[C@H]3CCC4=C([C@@H](C)C[C@@H](O)[C@H](O)C(C)(C)O)CC[C@@]4(C)[C@@]32C)C(O)C(O)C1O` (stereo not given in full): the GI50 is 16.9 µM and the TGI was 31 µM.

In the case of `CC(C)(C)OC(=O)n1cc(CNC(=S)Nc2ccccc2)c2ccccc21`, the GI50 is 4.15 µM and the TGI came to 21.5 µM.

For the compound `O=C(CCN1CCN(c2cnc3ccccc3n2)CC1)c1csc2ccccc12`, the GI50 is 36 µM and the TGI is more than 100 µM.

`N/C(CC(=O)Nc1cc(C(F)(F)F)ccc1Cl)=N\O` yielded a TGI of more than 100 µM.

Consider `CC(CO)(CO)N=Cc1cc(I)cc(I)c1O`, for which the TGI worked out at 54.2 µM.

For `COc1ccc(/C=C/C=C(/C#N)C(N)=S)cc1`, the GI50 was 77.3 µM and the TGI was more than 100 µM.

Turning to `COC(=O)C1OC(O[C@H]2CCC3(C)C(CCC4(C)C3CC=C3C5CC(C)(C)CCC5(C(=O)O)CC[C@]34C)C2(C)C)C(O)C(OC2OC(CO)C(O)C(O)C2O)C1O` (stereo not given in full), the GI50 is 6.59 µM and the TGI stood at 12.9 µM.

A further assay deals with MDA-MB-231 breast. Nature of the assay: NCI anticancer screen, dose series, 48 h.
As to `COc1ccc(-c2nn(-c3cccc(Cl)c3)cc2C2CC(c3ccccc3)=NN2C(C)=O)cc1` (stereo not given), the GI50 was 7.99 µM and the TGI is more than 100 µM.

Regarding `CC(=O)OCC1OC(O[C@@H]2C[C@H]3C(C)(C)[C@H](OC(C)=O)CC[C@]3(C)[C@H]3CCC4=C([C@@H](C)C[C@@H](O)[C@H](O)C(C)(C)O)CC[C@@]4(C)[C@@]32C)C(O)C(O)C1O` (stereo not given in full), the GI50 is 11.6 µM and the TGI was 23.8 µM.

In the case of `CC(C)(C)OC(=O)n1cc(CNC(=S)Nc2ccccc2)c2ccccc21`, the GI50 was 15.5 µM and the TGI was 28.8 µM.

For `CN=C(N)N/N=C(\c1ccccc1)c1ccc(Br)cc1`, the GI50 was 0.358 µM and the TGI worked out at 2.09 µM.

For the compound `CNC(=O)c1ccccc1CC1(O)c2ccccc2Oc2ccccc21`, the GI50 is 15 µM and the TGI is 83.3 µM.

For the compound `O=C(CCN1CCN(c2cnc3ccccc3n2)CC1)c1csc2ccccc12`, the GI50 was 26 µM and the TGI was 63 µM.

Turning to `COc1cc2c3c(cccc3c1)C(=O)N(CCN1CCCC1)C2=O`, the GI50 was 2.46 µM and the TGI was found to be 10.2 µM.

Compound `N/C(CC(=O)Nc1cc(C(F)(F)F)ccc1Cl)=N\O` gave a TGI of more than 100 µM.

As for `CC(CO)(CO)N=Cc1cc(I)cc(I)c1O`, the TGI worked out at 38.7 µM.

On to `CC1(C)N=C(N)N=C(N)N1c1ccc(CCCCc2ccc(S(=O)(=O)F)cc2)cc1`, for which the GI50 is 3.53 µM and the TGI stood at 25 µM.

With `Oc1ccccc1/C=N/Nc1ccc2ccccc2n1`, the GI50 is 3.35 µM and the TGI was more than 100 µM.

Turning to `COc1ccc(/C=C/C=C(/C#N)C(N)=S)cc1`, the GI50 was 26.9 µM and the TGI came to 87.4 µM.

For the compound `CCC(C)C1NC(=O)c2nc(oc2-c2ccccc2)-c2csc(n2)-c2csc(n2)-c2nc(oc2C)-c2coc(n2)CNC(=O)C(C(C)CC)NC1=O` (stereo not given), the GI50 was 0.035 µM and the TGI is 0.135 µM.

As to `CCCCCCCCCCCCCC(=S)NCCCC[C@H](NC(=O)OCc1ccccc1)C(=O)Nc1ccccc1`, the GI50 is 5.53 µM and the TGI was more than 100 µM.

As for `COC(=O)C1OC(O[C@H]2CCC3(C)C(CCC4(C)C3CC=C3C5CC(C)(C)CCC5(C(=O)O)CC[C@]34C)C2(C)C)C(O)C(OC2OC(CO)C(O)C(O)C2O)C1O` (stereo not given in full), the GI50 is 7.28 µM and the TGI was found to be 13.5 µM.

Turning to `CN1CCN(CC#Cc2cccc(C(=O)c3cnn(-c4ccc(F)cc4)c3N)c2)CC1`, the GI50 is more than 25 µM and the TGI is more than 25 µM.

The next assay relates to IGROV1 ovarian. Put plainly: NCI anticancer screen, dose series, 48 h.
As for `COc1ccc(-c2nn(-c3cccc(Cl)c3)cc2C2CC(c3ccccc3)=NN2C(C)=O)cc1` (stereo not given), the GI50 was 13.7 µM and the TGI was more than 100 µM.

With `CC(=O)OCC1OC(O[C@@H]2C[C@H]3C(C)(C)[C@H](OC(C)=O)CC[C@]3(C)[C@H]3CCC4=C([C@@H](C)C[C@@H](O)[C@H](O)C(C)(C)O)CC[C@@]4(C)[C@@]32C)C(O)C(O)C1O` (stereo not given in full), the GI50 was 16.3 µM and the TGI came to 30.1 µM.

Turning to `CC(C)(C)OC(=O)n1cc(CNC(=S)Nc2ccccc2)c2ccccc21`, the GI50 was 27.6 µM and the TGI was more than 100 µM.

In the case of `CN=C(N)N/N=C(\c1ccccc1)c1ccc(Br)cc1`, the GI50 was 0.629 µM and the TGI is 17.1 µM.

In the case of `CNC(=O)c1ccccc1CC1(O)c2ccccc2Oc2ccccc21`, the GI50 is 26.4 µM and the TGI is more than 100 µM.

As for `COc1cc2c3c(cccc3c1)C(=O)N(CCN1CCCC1)C2=O`, the GI50 is 2.66 µM and the TGI stood at 6.78 µM.

In the case of `N/C(CC(=O)Nc1cc(C(F)(F)F)ccc1Cl)=N\O`, the TGI is more than 100 µM.

`CC(CO)(CO)N=Cc1cc(I)cc(I)c1O` had a TGI of 33.3 µM.

For the compound `CC1(C)N=C(N)N=C(N)N1c1ccc(CCCCc2ccc(S(=O)(=O)F)cc2)cc1`, the GI50 was 0.445 µM and the TGI was found to be 23.5 µM.

Consider `Oc1ccccc1/C=N/Nc1ccc2ccccc2n1`, for which the GI50 was 3.18 µM and the TGI is 12.3 µM.

For the compound `COc1ccc(/C=C/C=C(/C#N)C(N)=S)cc1`, the GI50 was 28.3 µM and the TGI is more than 100 µM.

For `CCC(C)C1NC(=O)c2nc(oc2-c2ccccc2)-c2csc(n2)-c2csc(n2)-c2nc(oc2C)-c2coc(n2)CNC(=O)C(C(C)CC)NC1=O` (stereo not given), the GI50 was 0.0263 µM and the TGI turned out to be 0.122 µM.

As for `CCCCCCCCCCCCCC(=S)NCCCC[C@H](NC(=O)OCc1ccccc1)C(=O)Nc1ccccc1`, the GI50 was 5.87 µM and the TGI was more than 100 µM.

As for `COC(=O)C1OC(O[C@H]2CCC3(C)C(CCC4(C)C3CC=C3C5CC(C)(C)CCC5(C(=O)O)CC[C@]34C)C2(C)C)C(O)C(OC2OC(CO)C(O)C(O)C2O)C1O` (stereo not given in full), the GI50 is 20.1 µM and the TGI was more than 33.3 µM.

As for `CN1CCN(CC#Cc2cccc(C(=O)c3cnn(-c4ccc(F)cc4)c3N)c2)CC1`, the GI50 was more than 25 µM and the TGI is more than 25 µM.

For a further assay, the system named is NCI-H460 lung. Nature of the assay: NCI anticancer screen, dose series, 48 h.
Turning to `COc1ccc(-c2nn(-c3cccc(Cl)c3)cc2C2CC(c3ccccc3)=NN2C(C)=O)cc1` (stereo not given), the GI50 was 4.17 µM and the TGI is more than 100 µM.

In the case of `CC(=O)OCC1OC(O[C@@H]2C[C@H]3C(C)(C)[C@H](OC(C)=O)CC[C@]3(C)[C@H]3CCC4=C([C@@H](C)C[C@@H](O)[C@H](O)C(C)(C)O)CC[C@@]4(C)[C@@]32C)C(O)C(O)C1O` (stereo not given in full), the GI50 was 16 µM and the TGI is 29.8 µM.

Consider `CC(C)(C)OC(=O)n1cc(CNC(=S)Nc2ccccc2)c2ccccc21`, for which the GI50 was 9.36 µM and the TGI was found to be 22 µM.

As for `CN=C(N)N/N=C(\c1ccccc1)c1ccc(Br)cc1`, the GI50 is 0.355 µM and the TGI stood at 9.05 µM.
